From ChEMBL document CHEMBL1158035, “Actinomycins with altered threonine units in the beta-peptidolactone” (2006) come the findings set out here.

Values joined by “and” are separate entries in the source; they are usually repeats but may differ in a detail not shown here. Identical values can stand only once. Numbered stars: 1 amine (or outer) side, 2 acyl side, 3 side chain; on linkers, the order of the positions; unused ones are H or OH. Bridge positions count the residues as written; N and C are the ends. Square brackets hold non-standard residues; d marks the D form. Peptide text beside a SMILES is read from it. I, II: the chains in the order shown. Actinocin(1to9) = Cc1c2oc3c(C)ccc(C(=O)[*:2])c3nc-2c(C(=O)[*:1])c(N)c1=O; NMeV = CN[C@H](C(=O)O)C(C)C; Sar = CNCC(=O)O Where only a bound is given, the exact number is not on record here.

A short description of experiment [1]: (§1) Cytotoxicity against human Hep G2 cells. Particulars: HepG2. It is filed as functional.
The test system of the next experiment is Escherichia coli. Nature of the experiment: Antimicrobial activity against Escherichia coli at 50 ug after 24 hrs by disk diffusion method. The experiment is classed as functional. The settings on record: read-out: IZ.
The test system of a further experiment is Staphylococcus aureus. Nature of the experiment: Antimicrobial activity against Staphylococcus aureus at 50 ug after 24 hrs by disk diffusion method. The settings on record: read-out: IZ. It is filed as functional. (A growth-free zone around the sample is the usual read-out of agar diffusion tests.)
The next experiment has as its system Bacillus subtilis. As to the kind of experiment: Antimicrobial activity against Bacillus subtilis at 50 ug after 24 hrs by disk diffusion method. The experiment is classed as functional. Particulars: read-out: IZ.
Experiment [2] is described as follows: Cytotoxicity against human HM02 cells. The experiment is classed as functional.
A short description of experiment [3]: as §1. The experiment is classed as functional, HepG2.

As to `Cc1c2oc3c(C)ccc(C(=O)N[C@@H]4C(=O)N[C@H](C(C)C)C(=O)N5[C@H](C(=O)N(C)CC(=O)N(C)[C@@H](C(C)C)C(=O)O[C@@H]4C)[C@@H](O)C[C@@H]5C)c3nc-2c(C(=O)N[C@@H]2C(=O)N[C@H](C(C)C)C(=O)N3CCC[C@H]3C(=O)N(C)CC(=O)N(C)[C@@H](C)C(=O)O[C@@H]2CO)c(N)c1=O` [ACTINOMYCIN G3], the GI50 (usually the concentration that inhibits growth by half) in experiment [1] was 0.46 µM; in experiment [2] (Homo sapiens, HM02), 0.13 µM; in experiment [3] (Homo sapiens, HepG2), 1.1 µM. In addition, the TGI (usually the concentration at which net growth stops) is 1.6 µM in experiment [1]; 0.55 µM in experiment [2] (Homo sapiens, HM02); above 7.9 µM in experiment [3] (Homo sapiens, HepG2). Also, the zone of inhibition at 50 µg/disc worked out at 0 mm in the experiment on Escherichia coli, 21 mm in the experiment on Staphylococcus aureus and 33 mm with Bacillus subtilis.

Take `Cc1c2oc3c(C)ccc(C(=O)N[C@@H]4C(=O)N[C@H](C(C)C)C(=O)N5[C@H](C(=O)N(C)CC(=O)N(C)[C@@H](C(C)C)C(=O)O[C@@H]4C)[C@@H](O)C[C@@H]5C)c3nc-2c2c(c1=O)OC[C@H]1OC(=O)[C@H](C)N(C)C(=O)CN(C)C(=O)[C@@H]3CCCN3C(=O)[C@@H](C(C)C)NC(=O)[C@H]1NC2=O` [ACTINOMYCIN G5]: the GI50 in experiment [1] was 1.4 µM; in experiment [2] (Homo sapiens, HM02), 2.1 µM; in experiment [3] (Homo sapiens, HepG2) it was 2.7 µM. Moreover, the TGI is 2.5 µM in experiment [1]; 4.4 µM in experiment [2] (Homo sapiens, HM02); 7.8 µM in experiment [3] (Homo sapiens, HepG2). The zone of inhibition at 50 µg/disc with Escherichia coli came to 0 mm; with Staphylococcus aureus, 10 mm; in the experiment with Bacillus subtilis it was 20 mm.

Consider `Cc1c2oc3c(C)ccc(C(=O)N[C@@H]4C(=O)N[C@H](C(C)C)C(=O)N5CCC[C@H]5C(=O)N(C)CC(=O)N(C)[C@@H](C(C)C)C(=O)O[C@@H]4C)c3nc-2c(C(=O)N[C@@H]2C(=O)N[C@H](C(C)C)C(=O)N3CCC[C@H]3C(=O)N(C)CC(=O)N(C)[C@@H](C(C)C)C(=O)O[C@@H]2C)c(N)c1=O` [DACTINOMYCIN] (I: T[dV]P[Sar][NMeV] / II: T[dV]P[Sar][NMeV]; ester I:1-I:C, II:1-II:C; linker I:N-II:N via Actinocin(1to9)), for which the GI50 came out at 0.0019 µM in experiment [1]; 0.0016 µM in experiment [2] (Homo sapiens, HM02); 0.0012 µM in experiment [3] (Homo sapiens, HepG2). The TGI in experiment [1] amounted to 0.0088 µM; in experiment [2] (Homo sapiens, HM02), 0.0064 µM; in experiment [3] (Homo sapiens, HepG2), 0.052 µM. Further, the zone of inhibition at 50 µg/disc with Escherichia coli stood at 20 mm; in the experiment on Staphylococcus aureus, 30 mm; with Bacillus subtilis, 55 mm.

`Nc1cc2nc3ccccc3oc-2cc1=O`: the GI50 amounted to 0.61 µM in experiment [1]; 4.45 µM in experiment [2] (Homo sapiens, HM02); 6.6 µM in experiment [3] (Homo sapiens, HepG2). For the same compound, the TGI in experiment [1] was found to be 2 µM; in experiment [2] (Homo sapiens, HM02) it was 10 µM; in experiment [3] (Homo sapiens, HepG2), 26 µM.

For `Cc1c2oc3c(C)ccc(C(=O)N[C@@H]4C(=O)N[C@H](C(C)C)C(=O)N5[C@H](C(=O)N(C)CC(=O)N(C)[C@@H](C(C)C)C(=O)O[C@@H]4C)[C@@H](O)C[C@@H]5C)c3nc-2c(C(=O)N[C@@H]2C(=O)N[C@H](C(C)C)C(=O)N3CCC[C@H]3C(=O)N(C)CC(=O)N(C)[C@@H](C)C(=O)O[C@@H]2C)c(N)c1=O` [ACTINOMYCIN G4], the GI50 stood at 0.4 µM in experiment [1]; 0.065 µM in experiment [2] (Homo sapiens, HM02); 0.64 µM in experiment [3] (Homo sapiens, HepG2). Besides, the TGI in experiment [1] turned out to be 1.5 µM; in experiment [2] (Homo sapiens, HM02) it was 0.52 µM; in experiment [3] (Homo sapiens, HepG2), 1.4 µM.

`Cc1c2oc3c(C)ccc(C(=O)N[C@@H]4C(=O)N[C@H](C(C)C)C(=O)N5[C@H](C(=O)N(C)CC(=O)N(C)[C@@H](C(C)C)C(=O)O[C@@H]4C)[C@@H](O)C[C@@H]5C)c3nc-2c(C(=O)OC[C@H](O)[C@@H]2NC(=O)[C@H](C)N(C)C(=O)CN(C)C(=O)[C@@H]3CCCN3C(=O)[C@@H](C(C)C)NC2=O)c(N)c1=O` [ACTINOMYCIN G6] yielded a GI50 in experiment [1] of 1.4 µM. Moreover, the TGI is 4.6 µM in experiment [1]; 2 µM in experiment [2]; 1 µM in experiment [2] (Homo sapiens, HM02); 1.6 µM and > 7.9 µM in experiment [3]. Moreover, the zone of inhibition at 50 µg/disc in the experiment with Escherichia coli, in the experiment with Staphylococcus aureus and in the experiment on Bacillus subtilis was 0 mm throughout.

On to `Cc1c2oc3c(C)ccc(C(=O)N[C@@H]4C(=O)N[C@H](C(C)C)C(=O)N5[C@H](C(=O)N(C)CC(=O)N(C)[C@@H](C(C)C)C(=O)O[C@@H]4C)[C@@H](O)C[C@@H]5C)c3nc-2c(C(=O)N[C@@H]2C(=O)N[C@H](C(C)C)C(=O)N3CCC[C@H]3C(=O)N(C)CC(=O)N(C)[C@@H](C)C(=O)O[C@@H]2CCl)c(N)c1=O` [ACTINOMYCIN G2], for which the GI50 in experiment [1] was determined as 0.0039 µM; in experiment [2] (Homo sapiens, HM02), 0.0013 µM; in experiment [3] (Homo sapiens, HepG2), 0.0029 µM. The TGI came to 0.012 µM in experiment [1]; 0.0043 µM in experiment [2] (Homo sapiens, HM02); 0.018 µM in experiment [3] (Homo sapiens, HepG2). The zone of inhibition at 50 µg/disc with Escherichia coli was 15 mm; with Staphylococcus aureus, 27 mm; in the experiment on Bacillus subtilis, 45 mm.
